Measurements: patent US8124565B2, “Method of protecting a plant propagation material, a plant, and/or plant organs” (priority 2006, dated 2012)
Like-named read-outs stand apart in the source and are kept apart here.

How the values were obtained:
Pyrenophora graminea [1] = experiment: Fungal growth assay, Pyrenophora graminea (microtiter plate, PDB); format: cell-based; conditions: 72 hrs
Gäumannomyces graminis = experiment: Fungal growth assay, Gäumannomyces graminis (microtiter plate, PDB); format: cell-based; conditions: 72 hrs
Fusarium graminearum [2] = format: cell-based; conditions: 48 hrs
Pyrenophora graminea [3] = experiment: Pyrenophora graminea/barley (stripe disease) seed treatment test; format: in vivo; conditions: seed treatment 20 g/100 kg, infected winter barley seeds
Procedure: A-1. Pyrenophora graminea/Barley (Stripe Disease on Barley)
After application of the formulated seed treatment onto P. graminea-infected seeds of winter barley the seeds are sown in trays filled with field soil. The trays are kept in a growth room for 3 weeks at 4° C. After this period the trial is transferred to a greenhouse where a temperature of 12° C. and a 14 hr light period is provided. The following assessments are made: emergence count, final stand count, number of infected plants.

Rhizoctonia solani = experiment: Rhizoctonia solani/cotton (damping off) seed treatment test; format: in vivo; conditions: seed treatment 200 g/100 kg, cotton seeds in inoculated soil
Procedure: A-2. Rhizoctonia solani/Cotton (Damping Off on Cotton)
A defined amount of mycelium of R. solani is blended with soil and trays are filled with the inoculated soil. The formulated test compounds are applied to cotton seeds. The treated cotton seeds are then sown into the inoculated soil. Until germination the test is stored at 20° C. and a rel. humidity of 90% in the dark. After germination the test is transferred to 25° C. and a rel. humidity of 70% with a photoperiod of 14 h. The evaluation is done by counting the emerged cotton plants and the number of emerged and diseased plants.

Fusarium graminearum [4] = format: in vivo; conditions: seed treatment 20 g/100 kg, corn seeds (cv. Magister) in inoculated soil

SMILES | Observed control in % (% Cobs) (Pyrenophora graminea [1]; 0.25 ppm) | Observed control in % (% Cobs) (Gäumannomyces graminis; 0.5 ppm) | Observed control in % (% Cobs) (Fusarium graminearum [2]; 0.03125 ppm) | Observed control in % (% Cobs) (Fusarium graminearum [2]; 0.0625 ppm) | Observed control in % (% Cobs) (Fusarium graminearum [2]; 0.125 ppm) | Observed control in % (% Cobs) (Fusarium graminearum [2]; 0.25 ppm) | activity (Pyrenophora graminea [3]) | activity (Rhizoctonia solani) | activity (Fusarium graminearum [4]) | Observed control in % (% Cobs) (Pyrenophora graminea [1]; 0.5 ppm) | Observed control in % (% Cobs) (Gäumannomyces graminis; 0.25 ppm)
Cn1cc(C(=O)Nc2ccccc2C2CC2C2CC2)c(C(F)F)n1 (stereo not drawn) [Compound of formula A, reference compound] | 0% | 74.8% | 1.6% | 2.4% | 8.4% | 7.8% |  |  |  |  | 
Cc1ccc(C2CC(C)(c3cccnc3)N(C)O2)cc1 (stereo not drawn) [Compound of formula I] |  |  | 0% | 3.5% | 4.4% | 12.5% | 100% | 70% | 100% | 62.3% | 26.0%
